Reference: US7341721B2 (The Board of Trustees of the University of Arkansas, priority 2002, dated 2008)

Experiments:
[1] = system: myeloma cell lines; experiment: Apoptosis assay (Annexin V/PI staining, TUNEL), myeloma cell lines; assay type: cell-based, human; settings: for protection from β2m-induced apoptosis / spontaneous apoptosis of myeloma cells: IL-6 20 ng/ml or IGF-I 50 ng/ml, ARK-RS and RPMI-8226; for protection from B2 anti-β2m antibody-induced apoptosis: cytokines added to myeloma cells
Experimental: (§1) The fraction of apoptotic cells was determined by staining cells with Annexin V-fluorescein isothiocyanate (FITC) (Immunotech) and propidium iodide (PI) (Sigma) (Vermes, I., et al., J. Immunol. Methods, 184:39-51, 1995). […] 5 μl of Annexin V-FITC (BD PharMingen, San Diego, Calif.) were added and incubated for 30 minutes. After washing and re-suspension of the cells in the binding buffer, 5 μl of PI were added, and the cells were ready for analysis. Percentages of apoptotic cells are the sum of PI^−/Annexin V^+ (newly apoptotic) and PI^+/Annexin V^+ (already apoptotic) cell populations (Vermes, I., et al., J. Immunol. Methods, 184:39-51, 1995).
A flow cytometry-based cell death detection kit (APO-BRDU) was purchased from BD PharMingen, and experiments were performed according to the manufacturer's protocol.

[2] = system: caspase-3 and PARP; experiment: Western blot of caspase-3 activation and PARP cleavage in myeloma cells; assay type: cell-based, human; settings: Z-VAD-FMK 100 μM; ARK-RS and RPMI-8226
Experimental: Cells were cultured with or without 40 μg/ml β2m for 48 hours, harvested, washed, and lysed with lysis buffer (50 mM Tris, pH 7.5, 140 mM NaCl, 5 mM EDTA, 5 mM NaN3, 1% Triton-X-100, 1% NP-40, 1× protease inhibitor cocktail). […] The membrane was stripped and reprobed with anti-β-actin antibody (Santa Cruz Biotechnology) to ensure equivalent protein loading. For detection of caspase-3 activation and cleavage of poly(ADP-ribose) polymerase (PARP), the membranes were immunoblotted with anti-caspase-3 antibody (Santa Cruz Biotechnology) or anti-PARP antibody (BD PharMingen). Secondary antibodies conjugated to horseradish peroxidase were used for detection, followed by enhanced chemiluminescence (Bio-Rad Laboratories, Hercules, Calif.) and autoradiography.

[3] = system: Jurkat cells; experiment: Apoptosis in Jurkat cells; assay type: cell-based; settings: Z-VAD-FMK 100 μM; antibody 100 ng/ml, 18-hour culture
Experimental: as §1
A pan-caspase inhibitor, z-Val-Ala-Asp-fluoromethyl ketone (Z-VAD-FMK) or caspase I inhibitor V, was purchased from Calbiochem-Novabiochem. This peptide was dissolved in dimethylsulfoxide (DMSO, Sigma) and added to cell suspensions at a final concentration of 100 μM (final DMSO concentration of 0.25%).
When the pan-caspase inhibitor Z-VAD-FMK was added to the culture, activation and processing of caspase-3 (data not shown), cleavage of PARP (FIG. 5B), and apoptosis (FIG. 5C) were inhibited.

[4] = system: myeloma cell lines; settings: RPMI-8226 and U266; cited from earlier work

Molecule	effect on β2m-induced apoptosis ([1]; Z-VAD-FMK 100 μM, RPMI-8226, β2m 40 μg/ml, 48-hour culture)	effect on β2m-induced caspase-3 activation and PARP cleavage [2]	effect on anti-Fas antibody 7C11-induced apoptosis [3]	protection from β2m-induced apoptosis [1]	spontaneous apoptosis of myeloma cells [1]	protection from B2 anti-β2m antibody-induced apoptosis [1]	sensitivity of myeloma cell lines to melphalan [4]
z-Val-Ala-Asp-fluoromethyl ketone [Z-VAD-FMK]	inhibited	inhibited	abrogated apoptosis	–	–	–	–
IGF-I: recombinant human IGF-I (R&D Systems), growth and survival factor for myeloma cells	–	–	–	only IL-6 protected myeloma cells	reduced the percentage of cells undergoing spontaneous apoptosis	do not protect myeloma cells	–
N[C@@H](Cc1ccc(N(CCCl)CCCl)cc1)C(=O)O [melphalan]	–	–	–	–	–	–	sensitive
IL-6: recombinant human IL-6 (R&D Systems), growth and survival factor for myeloma cells	–	–	–	protected myeloma cells from β2m-induced apoptosis	reduced the percentage of cells undergoing spontaneous apoptosis	do not protect myeloma cells	–
